Source: publication PMC6925144, “A prospective compound screening contest identified broader inhibitors for Sirtuin 1” (Scientific Reports, 2019)
Read-outs that look alike come from different tables or passages of the source.

Legend:
Sirtuin 1 = details: cited from earlier work
[1] = tested on: human leukemia U937 cells; design: method as in PMID 18348515; details: cited from earlier work
human SIRT1 [2] = biological target: T1, human SIRT1 (Homo sapiens, UniProt Q96EB6); experiment: SIRT-Glo luminogenic enzymatic inhibitory assay (inhibition rate and IC50); assay type: biochemical
T1 construct: host or cells: Escherichia coli M15
T1 sequence (Q96EB6 with tags, fused parts or gaps): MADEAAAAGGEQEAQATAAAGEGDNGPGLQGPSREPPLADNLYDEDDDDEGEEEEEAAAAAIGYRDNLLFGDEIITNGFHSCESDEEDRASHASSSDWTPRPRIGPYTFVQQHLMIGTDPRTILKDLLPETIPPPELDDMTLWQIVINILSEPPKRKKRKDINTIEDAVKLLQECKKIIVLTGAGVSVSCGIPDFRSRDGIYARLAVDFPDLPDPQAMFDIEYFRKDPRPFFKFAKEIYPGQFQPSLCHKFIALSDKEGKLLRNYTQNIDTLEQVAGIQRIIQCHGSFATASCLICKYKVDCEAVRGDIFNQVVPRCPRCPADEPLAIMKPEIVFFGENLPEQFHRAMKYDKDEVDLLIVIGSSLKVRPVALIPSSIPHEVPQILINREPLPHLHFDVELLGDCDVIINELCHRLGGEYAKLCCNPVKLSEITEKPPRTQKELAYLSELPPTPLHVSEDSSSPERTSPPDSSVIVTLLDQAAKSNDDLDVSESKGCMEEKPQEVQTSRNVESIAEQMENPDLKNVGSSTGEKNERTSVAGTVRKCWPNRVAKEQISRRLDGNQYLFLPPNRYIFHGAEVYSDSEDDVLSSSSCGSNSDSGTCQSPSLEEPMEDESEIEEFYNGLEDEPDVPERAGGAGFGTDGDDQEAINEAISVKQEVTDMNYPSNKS

human SIRT1 [3] = biological target: T1, human SIRT1; experiment: Thermal shift assay (TSA) of Sirtuin 1 in the presence of NAD+; assay type: binding; details: with NAD+, n = 4
Experimental: (§1) A total of 3,192 compounds extracted from the proposed lists were first screened by thermal shift assay (TSA), which determined a melting temperature shift (ΔTm) of Sirtuin 1 upon the addition of a test compound at a concentration of 10 µM (n = 1) with primary hit criteria of ΔTm > 0.45 K or ΔTm < −1.5 K. Primary hits (48 compounds) were retested in the same assay at three concentrations (5, 10, 20 µM, n = 4) for hit confirmation and for dose-dependency check. Secondary hits (41 compounds) were checked their selectivity for Sirtuin 1 based on counterscreening on unrelated protein targets (bovine carbonic anhydrase (CA) and recombinant SH2 domain of hABL1 kinase (ABL1)) at three different concentrations (5, 10, 20 µM, n = 4), which yielded 38 hit compounds, hereafter referred to as TSA hits. The TSA screening above was conducted in the absence of NAD^+. As noted, the structure of Sirtuin 1 is different in the presence of NAD^+ and substrate. The chemical profile of TSA hits found from the different conditions could be different. […] As a result, 39 TSA hits were found. Regardless of the presence of NAD^+, 29 compounds were shared in both TSA hits.
(§2) Table S1. Buffer concentrations used for preparing buffer composition matrix screening plates.
(§3) Buffer Plate 1 (mM) Plate 2 (mM)
(§4) Selection of the optimal buffer composition was based on balancing several criteria including undistorted protein melting curve, maximized melting temperature stability of SIRT1 protein and maximized melting temperature shift induced by the acetylated histone H3K9 peptide (KQTARK(Ac)STGG, a natural substrate of SIRT1). Thermal shift experiments were done at 120 µM H3K9 in the presence of 500 µM NAD+, a co-factor of SIRT1. Separate additions of H3K9 or […]
result, the buffer consisting of 20 mM Tris-HCl pH 8 and 50 mM NaCl was selected for the screening. Purified SIRT1 protein was pre-mixed with SYPRO Orange dye (Thermo Fischer Scientific, Cat. S6650, 5000x stock) to prepare a master mix at 400 µg/mL protein and 10x dye concentration. Tested compounds were added to the protein-dye master mix at 10 µM (1% final DMSO concentration) and incubated for 1 h at 4 °C in MicroAmp® optical 384-well reaction plates (ThermoFisher, Cat. 4309849) sealed with optical sealing film (ThermalSeal RT2, Excel Scientific, Cat. TS-RT2). The volumes of all reaction mixtures were 10 µL (4 µg SIRT1 per well). The reaction plates were then kept at ambient temperature (22-24 °C) for additional 15 minutes to ensure protein-compound interactions. Thermal scanning was performed by raising temperature to 35 °C at 1.6 °C/min without signal detection followed by 35 °C to 75 °C temperature ramp at 0.05 °C/s with constant fluorescence intensity reading at 1 sec intervals using EX470/EM623 nm filter set. Primary screening of the whole test set of 3,192 compounds was carried out in singletons. The raw data of dye fluorescence intensity change upon protein melt were exported using the ViiA7 RUO software (Applied Biosystems/ThermoFischer Scientific). Further data visualization, curve fitting, melting temperature calculations on the raw fluorescence data were performed using custom-made Microsoft Excel scripts developed by us. The peak of the first derivative for the fluorescence curve was used to define melting temperature (Tm). Averaged Tm values for the control wells (64 wells per plate), containing only the protein, dye and 1% DMSO were used as a reference point to determine melting temperature shifts (ΔTm). Hit selection criteria was ΔTm > 0.45 °C or ΔTm < −1.5 °C. All primary hits were re-tested in the same assay at 3 concentrations (20, 10 and 5 µM, n = 4) for hit confirmation

[4] = tested on: bovine carbonic anhydrase (CA); experiment: TSA counterscreening on unrelated protein, carbonic anhydrase; assay type: binding; details: without NAD+
Experimental: as §1

human SIRT1 [5] = biological target: T1, human SIRT1; experiment: Thermal shift assay (TSA) of Sirtuin 1 without NAD+; assay type: binding; details: without NAD+; for ΔTm at 10 µM: read-out: ΔTm Sirtuin 1
Experimental: as §1
B. Setup and validation of Protein Thermal Shift Assay.
All tested compounds were obtained from the screening compound collection of Enamine Ltd.
(Kiev, Ukraine). Stock solutions of the tested compounds were prepared at 10 mM in 100% DMSO and were stored at −20 °C until use. All thermal shift assay (TSA) experiments with SIRT1 protein were performed using ViiA™7 real-time PCR System equipped with 384-well heat block (Applied Biosystems, USA). General TSA methodology was adopted from the literature3-5 and experimentally modified in order to optimize conditions for measuring SIRT1 melting temperature shifts upon interaction with small molecules. To define the optimal buffer composition for the TSA procedure, a matrix of common buffers combined on a 96-well plate (Figure S3) was tested in thermal melt experiment on a 384-well plate (each buffer composition in quadruplicate). In addition, each buffer composition shown on Figure S3 was tested at two different buffering component concentrations, as listed in Table S1, resulting in two 384-well plate buffer screening experiments and the total of 192 different buffer compositions tested.
Figure S3. Matrix plate of the buffer compositions assessed for TSA optimization.
(1 picture or pasted object on this page, not shown here)
as §2, §3, §4
result, the buffer consisting of 20 mM Tris-HCl pH 8 and 50 mM NaCl was selected for the screening. Purified SIRT1 protein was pre-mixed with SYPRO Orange dye (Thermo Fischer Scientific, Cat. S6650, 5000x stock) to prepare a master mix at 400 µg/mL protein and 10x dye concentration. Tested compounds were added to the protein-dye master mix at 10 µM (1% final DMSO concentration) and incubated for 1 h at 4 °C in MicroAmp® optical 384-well reaction plates (ThermoFisher, Cat. 4309849) sealed with optical sealing film (ThermalSeal RT2, Excel Scientific, Cat. TS-RT2). The volumes of all reaction mixtures were 10 µL (4 µg SIRT1 per well). The reaction plates were then kept at ambient temperature (22-24 °C) for additional 15 minutes to ensure protein-compound interactions. Thermal scanning was performed by raising temperature to 35 °C at 1.6 °C/min without signal detection followed by 35 °C to 75 °C temperature ramp at 0.05 °C/s with […]

[6] = biological target: T2, recombinant SH2 domain of hABL1 kinase (ABL1) (Homo sapiens, UniProt P00519); experiment: TSA counterscreening on unrelated protein, ABL1 SH2 domain; assay type: binding; details: without NAD+
T2 construct: recombinant SH2 domain of hABL1 kinase (ABL1)
T2 sequence (P00519 127-217 limits assumed): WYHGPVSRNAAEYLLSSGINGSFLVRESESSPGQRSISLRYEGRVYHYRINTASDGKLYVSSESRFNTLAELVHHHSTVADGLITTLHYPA
Experimental: as §1

[7] = final Sirtuin 1 concentration 20 nM, n = 4, read-out: IC50

O=C1/C(=C/c2cc(Br)c(O)c(Br)c2)CCC/C1=C\c1cc(Br)c(O)c(Br)c1 [CHEMBL260149]
Inh. rate@25 μM (Sirtuin 1; 25 μM): 0.95 (Inh. rate@25 μM: 50%)[57] | effect on apoptosis induction and granulocytic differentiation [1]: high differentiating activity

O=C(CNC(=O)c1nc(-c2ccccc2)no1)Nc1ccccc1 [CHEMBL449117]
Inhibition rate@200 μM (Sirtuin 1; 200 μM): 0.64 (Inhibition rate@200 μM: 28%)[69]

CC1(C)CC(=O)C2=C(C1)N(NC(=O)c1ccncc1)C1=C(C(=O)CC(C)(C)C1)C2c1ccccc1OCc1ccccc1 [CHEMBL1762050]
Inh. rate@50 μM (Sirtuin 1; 50 μM): 0.60 (Inh. rate@50 μM = 70%)[71]

CCNc1ncnc2cc(C(N)=O)sc12 [CHEMBL2332048]
IC50 (Sirtuin 1): > 50 µM

COc1ccc(CNCc2c(-c3nnc(SC(C)C)n3-c3ccccc3)n(C)c3ccc(F)cc23)cc1 [CHEMBL2436120]
Inh. rate@40 μM (Sirtuin 1; 40 μM): 0.65 (Inh. rate@40 μM: 70%)[70]

CC(C)(C)NS(=O)(=O)c1ccc2c(c1)Nc1ccccc1CC2 [CHEMBL3222149]
Inh. rate@100 μM (Sirtuin 1; 100 μM): 0.65 (Inh. rate@100 μM = 10%)[72]

COc1ccc(NC(=O)CSc2nnc(Nc3ccc(SC(F)F)cc3)s2)cc1OC [Compound Z21813138]
IC50 (human SIRT1 [2]; [7]): 7.7 µM | ΔTm, additional TSA experiment (human SIRT1 [3]): 0.32 K

O=C1/C(=C\c2cc(Br)cc(Br)c2O)CC/C1=C\c1cc(Br)cc(Br)c1O [Compound Z56773446]
ΔTm CA ([4]; 5 μM): 0.2 K | ΔTm CA ([4]; 10 μM): 0.5 K | ΔTm CA ([4]; 20 μM): 0.5 K | IC50 (human SIRT1 [2]; [7]): 4.1 µM | ΔTm at 5 µM (human SIRT1 [5]): 0.4 °C | ΔTm at 10 µM (human SIRT1 [5]): 0.6 °C | ΔTm at 20 µM (human SIRT1 [5]): 1 °C | ΔTm at 5 µM [6]: 0 °C | ΔTm at 10 µM [6]: 0.1 °C | ΔTm at 20 µM [6]: 0.2 °C | ΔTm, additional TSA experiment (human SIRT1 [3]): −0.05 K

O=C1NC(=S)NC(=O)C1=Cc1cn(-c2ccccc2)nc1-c1cc2ccccc2o1 [Compound Z62466600]
ΔTm CA ([4]; 5 μM): 0.0 K | ΔTm CA ([4]; 10 μM): 0.0 K | ΔTm CA ([4]; 20 μM): 0.0 K | IC50 (human SIRT1 [2]): 7.1 µM | ΔTm at 5 µM (human SIRT1 [5]): 0.2 °C | ΔTm at 10 µM (human SIRT1 [5]): 0.3 °C | ΔTm at 20 µM (human SIRT1 [5]): 0.5 °C | ΔTm, additional TSA experiment (human SIRT1 [5]; n = 4): 0.87 K | ΔTm at 5 µM [6]: -0.2 °C | ΔTm at 10 µM [6]: 0.1 °C | ΔTm at 20 µM [6]: 0 °C
